# Calls of active or inactive are those of the source. No cut-off for these calls is given here.
# Columns and labels:
# Format in all cases: functional, organism-based
# Plasmodium berghei = test: Antimalarial activity against Plasmodium berghei infected in mouse assessed as increase in mean survival time at 640 mg/kg, sc; set-up: dose 640 mg/kg
# Plasmodium cynomolgi [1] = test: Antimalarial activity against sporozoite form of Plasmodium cynomolgi infected in juvenile rhesus monkey assessed as radical curative effect at 10 mg/kg, administered 6 doses; set-up: dose 10 mg/kg
# Leishmania donovani = test: Antileishmanial activity against Leishmania donovani infected in golden hamster administered for 8 days
# Plasmodium cynomolgi [2] = test: Antimalarial activity against sporozoite form of Plasmodium cynomolgi infected in juvenile rhesus monkey assessed as radical curative effect
SMILES,Activity (Plasmodium berghei),Activity (Plasmodium cynomolgi [1]),Activity (Leishmania donovani),Activity (Plasmodium cynomolgi [2])
COc1ccc(NC(C)CCCN)c2cccnc12 (configuration not stated),inactive,Active,inactive,
COc1cc(NC(C)CCCN)c2ncccc2c1 (configuration not stated),,,,Active
COc1cc(NC(C)CCCN)c2nccc(C)c2c1 (configuration not stated),,,,Active
COc1cc2cc(NC(C)CCCN)cnc2cc1OC (configuration not stated),inactive,,inactive,
CCN(CC)CCCC(C)Nc1ccc(OC)c2ncccc12 (configuration not stated),inactive,,inactive,inactive
COc1cc2ncc(NC(C)CCCN)c(C)c2cc1OC (configuration not stated),inactive,,inactive,
CCN(CC)CCNc1ccc(OC)c2ncccc12,inactive,,inactive,inactive
COc1ccc2ncc(NC(C)CCCN)c(C)c2c1 (configuration not stated),inactive,,inactive,
